We go through 14 molecules from article PMC12303080, “Diverse actions of 15 structurally unrelated mitochondrial uncouplers in cells and mice” (Molecular Metabolism, 2025).

In series [1] the test system is CHO–K1 cells. The experiment in a line: OCR in the absence or presence of oligomycin (Supplementary Fig. 6). Format: cell-based, Cricetulus griseus. As to conditions: 1 μM oligomycin; for Effect of oligomycin on uncoupler-stimulated OCR: uncoupler at lowest concentration yielding MaxOCR. On the procedure: ATP synthase is the major conduit through which protons re-enter the mitochondrial matrix. Thus, we sought to investigate whether the selected uncouplers could stimulate oxygen consumption in the presence of the ATP synthase inhibitor oligomycin.
Supplementary Figure 6. […] At ~24 minutes, 1 μM of oligomycin or vehicle was injected, followed by the injection of the indicated uncoupler or vehicle at ~44 minutes, and 0.5 μM Rotenone / Antimycin A at ~88 minutes.

Series [2] has as its system CHO–K1 cells. The experiment in a line: Seahorse XF-96 OCR dose response of 15 uncouplers (Figure 2). Format: cell-based, Cricetulus griseus. The following applies: CHO–K1; for MaxOCR: 0.32–200 μM, first 24 min post injection; for EC50: mean OCR (% basal) over first 24 min post injection, ± standard error, four-parameter fit, read-out: EC50 (increase of OCR); for MaxOCR lower than that seen with BAM15: Figure 2; for Concentration range with sustained enhanced OCR (OCR ≥ 150% basal): tested 0.32–200 μM.
Method: (§1) Stock solutions of the uncouplers and/or Rotenone/Antimycin A were diluted in Seahorse media to give the final concentration indicated in Figure 1, Figure 2, Figure 3 with 0.4% (v/v) DMSO in wells.

In series [3] the test system is CHO–K1 cells. The following applies: 0.5–50 μM, BAM15 at 5 μM, FCCP at 1 μM.
Method: as §1
The next series has as its system HEK-293T cells. The following applies: HEK293T; 0.5–50 μM.
The next series concerns RAW 264.7 cells. The following applies: 0.5–50 μM.
Another series deals with HeLa cells. As to conditions: 0.5–50 μM.
The next series deals with db/db mice. The experiment in a line: Four-week treatment by admixture in chow, metabolic phenotyping. As to conditions: 4 weeks; for Body weight / weight gain vs db/db controls: 0.15% BAM15, 0.02% OPC-163493, 0.015% and 0.03% ES9, NTZ and NEN both doses; for Body weight, food intake, or metabolic tissue weights vs control: 0.25% NEN, 0.2% NTZ, 0.01% and 0.02% OPC-163493; for Blood glucose, HbA1c, glucose tolerance vs control / Overall metabolic phenotype vs db/db control (Figure 8, words): NEN both doses; for Blood glucose, HbA1c, glucose tolerance vs control: 0.01% OPC, 0.015% ES9, 0.2% NTZ; for Overall metabolic phenotype vs db/db control (Figure 8, words): OPC-163493 both doses, NTZ 0.2%; for Liver mass vs db/db control: both doses of BAM15, low dose NEN; for Daily food intake: both doses of BAM15, low dose of NEN, high dose of NTZ.

Series [4] relates to rats. The experiment in a line: NTZ toxicology study in rats (literature). Type of series: in vivo. As to conditions: worked out from rat dose.
Series [5] concerns rats. More on the design: method as in PMID 3889119. The following applies: cited from earlier work.
For series [6], the system named is CDAA/c mouse model of NASH. More on the design: method as in earlier work. The following applies: cited from earlier work.
The subject of a further series is SARS-CoV-2. More on the design: method as in PMID 35237748. As to conditions: two 300 mg extended release tablets; placebo […]; cited from earlier work.
Series [7] deals with Zucker diabetic fatty rats, Akita mice, and Otsuka Long-Evans Tokushima Fatty rats. Also noted: method as in PMID 31092829. The following applies: decreased HbA1c and lowered fasting blood glucose; cited from earlier work.
Series [8] is described as follows: Drug exposure / pharmacokinetics after oral gavage. The following applies: male, C57BL/6J, mouse, plasma, 10 mg/kg.
Method: Standards were prepared by spiking known concentrations (0.1, 1, 10, 100 and 1000 ng) of the uncoupler into whole blood prior to extraction. Plasma was obtained by centrifugation at 2000×g for 10 min at 4 °C. Seven microlitres (7 μL) of plasma was precipitated in 100 μL of 90% (v/v) acetonitrile and 10% (v/v) methanol. The resulting solution was vortexed for 5 s and then centrifuged at 21,130×g for 10 min at 4 °C. The supernatant was collected in auto-sampler vials for mass spectrometry.
Plasma concentration of mitochondrial uncouplers at indicated timepoints was determined by LC-MS/MS. Error bars show SEM, n = 3 per mitochondrial uncoupler.
The nature of series [9]: Terminal plasma drug concentration by LC-MS/MS. Type of series: in vivo. As to conditions: db/db mice, study endpoint; TIZ row: mice fed 0.2% NTZ. On the procedure:
LC-MS/MS was performed using a Shimadzu Prominence LCMS-8030 as previously described.
Figure 7 Plasma drug concentration and markers of tissue damage in db/db mice at study endpoint. Plasma was collected via cardiac puncture at time of euthanasia. A–E) Terminal plasma drug concentration was measured by LC-MS/MS. F–I) Terminal plasma concentration of liver function indicators (ALT, AST and GLDH) and kidney function indicator (urea). Graphs show mean ± SEM, n = 6–9 per group for plasma drug concentration measurement. Due to the limited volume of samples, not all liver and kidney function tests could be performed for all mice.

Another series has as its system isolated rat hepatocytes. Also noted: method as in PMID 12150871, PMID 31297293. As to conditions: read-out: EC50, inhibiting oxygen consumption; cited from earlier work.
The conditions of series [10]: in vivo; cited from earlier work.
The mark [11] stands for this setting: Cricetulus griseus, CHO-K1, 0.4 h.

Read-outs that look alike come from different tables or passages of the source.

Method for HEK-293T cells: as §1
(§2) The dashed line indicates basal respiration, defined as the mean OCR over the first 24 minutes of the assay. Error bars show SEM, n = 3 per condition from three separate experiments.
Method for HeLa cells: as §1, §2
Method for RAW 264.7 cells: as §1, §2
Method for db/db mice: Body weight and glucose tolerance of male db/+ and db/db mice was assessed at 8–9 weeks of age to obtain baseline measurements. Db/+ were used as lean metabolically healthy controls and given ad libitum access to chow diet. Db/db mice were stratified into 12 groups using R (V4.4.0).
Mice were on treatment for a period of four weeks, during which body weight and food intake were measured daily. […] To counter this, food traps were placed beneath hoppers and leftover food in both the traps and hoppers was weighed daily. HbA1c was measured weekly. At the end of the treatment period, a glucose tolerance test was conducted, with fed and fasted bloods collected. At termination, blood was collected via cardiac puncture under isoflurane anaesthesia. Mice were euthanised by cervical dislocation and harvested tissues were flash-frozen in liquid nitrogen and stored at −80 °C.
Mice were fasted for 6 h and then received intraperitoneal injections of 20% (w/v) dextrose at a dose of 1 g/kg lean body mass. Blood glucose (BG) was measured at the time of fasting (random-fed BG) and then again prior to the commencement of the GTT following the 6-hour daytime fast (fasted BG). […] The rate of glucose clearance was measured using the trapezoidal method for calculation of area under the curve.
HbA1c was measured once weekly using an A1cNow + Portable HbA1c Test Kit. […] HbA1c was measured in the random-fed state.
A glucose tolerance test was conducted at the end of the treatment period, with random fed and 6-hour fasted bloods collected. Blood was collected in heparin tubes and kept on ice prior to centrifugation at 2000×g for 10 min at 4 °C to extract plasma. Plasma insulin concentration was determined using the Crystal Chem Ultra-Sensitive Mouse Insulin ELISA kit, according to manufacturers' instructions for the high range (1–64 ng/mL) assay.

As usually defined, the EC50 is the midpoint of the concentration-response curve. `CCCCCCCCCCCC[P+](c1ccccc1)(c1ccccc1)c1ccccc1` [C12TPP, Dodecyl-triphenylphosphonium]: the “Higher OCR in the presence of oligomycin” value with CHO–K1 cells [1] (initially) is around 60%. The “Effect of oligomycin on uncoupler-stimulated OCR” value (“Effect of oligomycin” below) in the series on CHO–K1 cells [1] is “largely unaffected by the presence of oligomycin”. In the series on CHO–K1 cells [2], the “Concentration giving max efficacy / MaxOCR” value was determined as 3.16 µM and the MaxOCR is listed as ~178 % of basal. For the same molecule, in the series with CHO–K1 cells [2] (doses above 3.16 μM), the “OCR at higher doses” value is on record as ~18 % of baseline. For the same molecule, the EC50 in the series with CHO–K1 cells [2] (Cricetulus griseus, 0.4 h) is 1020 ± 980 nM.
Consider `Cc1c2ccncc2c(C)c2c1[nH]c1ccccc12` [ELL, Ellipticine], for which, in the series on CHO–K1 cells [2], the “Concentration at which OCR increased above basal levels” value is above 100 µM and the MaxOCR is ~122 % of basal.
Regarding `N#CC(C#N)=NNc1ccc(OC(F)(F)F)cc1` [FCCP, Carbonyl cyanide p-trifluoromethoxyphenylhydrazone], the “Effect of oligomycin” value in the series on CHO–K1 cells [1] is reported as “largely unaffected by the presence of oligomycin”. Moreover, the MaxOCR is recorded as around 260 % basal in the series with CHO–K1 cells [3] and 260 % of basal in the series on CHO–K1 cells [2]. For the same molecule, the “Stimulation of OCR” value in the series with HEK-293T cells, in the series on RAW 264.7 cells and with HeLa cells was “failed to stimulate OCR above basal levels” each time. In addition, the EC50 with CHO–K1 cells [2] (setting [11]) is 310 nM.
Consider `O=C(Nc1ccc([N+](=O)[O-])cc1Cl)c1cc(Cl)ccc1O` [NEN, Niclosamide ethanolamine], for which, in the series on db/db mice, the “Body weight / weight gain vs db/db controls” value was “little impact on body weight”; the “Body weight, food intake, or metabolic tissue weights vs control” value (“Body weight, food intake … vs control” for short) is recorded as “not significantly different”; the “Blood glucose, HbA1c, glucose tolerance vs control” value (“Blood glucose, HbA1c … vs control” below) is “did not have significantly lower random-fed or 6-hour fasted blood glucose”; the “Overall metabolic phenotype vs db/db control (Figure 8, words)” value is “no significant changes compared to the db/db control except lower liver weight”. For the same molecule, in the series on db/db mice, the “Daily food intake” value is “restored normal food intake”. Also, in the series on db/db mice (high dose NTZ), the “Liver mass vs db/db control” value is given as “statistically decreased liver mass”. Moreover, the “Effect of oligomycin” value in the series with CHO–K1 cells [1] is “largely unaffected by the presence of oligomycin”. Besides, in the series with CHO–K1 cells [2], the “MaxOCR lower than that seen with BAM15” value is around 25% and the “Concentration range with sustained enhanced OCR (OCR ≥ 150% basal)” value was 0.32 µM. The concentration for a half-maximal effect (EC50) in the series on CHO–K1 cells [2] (setting [11]) is 90 nM.
On to `CC(=O)Oc1ccccc1C(=O)Nc1ncc([N+](=O)[O-])s1` [NTZ, Nitazoxanide], for which, in the series on db/db mice, the “Body weight / weight gain vs db/db controls” value is reported as “little impact on body weight”; the “Body weight, food intake … vs control” value is on record as “not significantly different”; the “Blood glucose, HbA1c … vs control” value is “did not have significantly lower random-fed or 6-hour fasted blood glucose”; the “Overall metabolic phenotype vs db/db control (Figure 8, words)” value is “no statistically significant phenotype”. Further, the “Daily food intake” value with db/db mice is on record as “restored normal food intake”. For the same molecule, in the series on db/db mice (0.4% in chow), the “Gonadal fat less than control group” value was determined as 26% and the “Post-treatment GTT AUC lower than control group” value is listed as around 29%. The “Liver mass vs db/db control” value in the series on db/db mice (high dose NTZ) is given as “statistically decreased liver mass”. Also, the “HbA1c” value with db/db mice (both doses of BAM15, printed 0.3% ES9, 0.4% NTZ) was “lowered HbA1c levels”. Also, in the series on db/db mice (either dose of BAM15, high dose ES9, high dose NTZ), the “Fasting and random fed blood glucose” value was “partial efficacy”. In the series with db/db mice (high dose NTZ (0.4%)), the “Increase of liver cholesterol concentration vs db/db control” value is reported as around 1.7 fold. In addition, in the series with db/db mice (low dose NTZ (0.2%)), the “Increase of liver cholesterol concentration vs db/db control” value was around 1.5 fold. For the same molecule, the “Mouse equivalent dose of the rat adverse effect dose” value in the series with rats [4] is reported as around 900 mg/kg/day. Further, the “Doses with increased salivation and lethargy, increased liver and spleen size” value with rats [5] is given as at least 450 mg/kg/day. The concentration giving a half-maximal response (EC50) with CHO–K1 cells [2] (setting [11]) came to 2320 ± 460 nM. Moreover, in series [6] (100 mg/kg/day), the “Decrease in liver fibrosis” value is 32%. Moreover, in series [6] (co-administered with Elafibranor), the “Decrease in liver fibrosis” value was 60%. For the same molecule, the “Patients progressed to severe disease” value with SARS-CoV-2 is recorded as 0.5%.
For orientation: Cmax means the peak of the concentration-time curve. On to `Cc1sc(-c2ccc(C(F)(F)F)cc2)nc1-c1nn[nH]c1C#N` [OPC-163493, 4-(5-methyl-2-(4-(trifluoromethyl)phenyl)thiazol-4-yl)-1H-1,2,3-triazole-5-carbonitrile], for which, in the series on db/db mice, the “Body weight / weight gain vs db/db controls” value was “non-significant trend for lower body weight”; the “Body weight, food intake … vs control” value was “not significantly different”; the “Blood glucose, HbA1c … vs control” value is “did not have significantly lower random-fed or 6-hour fasted blood glucose”; the “Overall metabolic phenotype vs db/db control (Figure 8, words)” value is given as “No statistically significant changes”. In addition, the “Effect of oligomycin” value in the series on CHO–K1 cells [1] is given as “largely unaffected by the presence of oligomycin”. Also, in the series on CHO–K1 cells [2], the “Concentration giving max efficacy / MaxOCR” value was 10 µM, the “MaxOCR lower than that seen with BAM15” value is listed as around 22% and the EC50 amounted to 1000 nM. Also, the EC50 in the series with CHO–K1 cells [2] (setting [11]) is 1010 ± 1200 nM. In addition, the “Doses with significant anti-diabetic effects (as low as)” value in series [7] is at least 2 mg/kg/day. The same molecule displayed a Cmax in [8] of 30.9 µM.
With `COc1cc(C(=O)OCC=C(C)C)nc2c(OCC=C(C)C)cccc12` [Ppc-1, Polysphondylium pseudo-candidum-1], the “OCR at 31.6 μM” value in the series on CHO–K1 cells [2] (31.6 μM) is recorded as around 130 % basal. The “Concentration inducing decline in OCR to sub-basal levels” value with CHO–K1 cells [2] (after ∼40 min of treatment) is given as “over 31.6 μM”. In the series with CHO–K1 cells [2] (setting [11]), the EC50 is 13500 ± 7140 nM.
Regarding `O=C(Nc1cc(Cl)cc(Cl)c1)Nc1cc(Cl)cc(Cl)c1` [SR4, 1,3-bis(3,5-dichlorophenyl)urea], in the series on CHO–K1 cells [2], the “Concentration at which OCR increased above basal levels” value was 200 µM and the MaxOCR is ~117 % of basal.
For `CNC(=O)c1cc(Oc2ccc(NC(=O)Nc3ccc(Cl)c(C(F)(F)F)c3)cc2)ccn1` [Sorafenib, 4-[4-({[4-chloro-3 (trifluoromethyl)phenyl]carbamoyl}amino)phenoxy]-N-methylpyridine-2-carboxamide], in the series with CHO–K1 cells [2] (tested concentration range, 120-minute assay), the “Uncoupling activity” value is listed as “did not have any uncoupling activity”.
In the case of `O=C(Nc1ncc([N+](=O)[O-])s1)c1ccccc1O` [TIZ, tizoxanide], the “Terminal plasma drug concentration vs in vitro uncoupling range” value in series [9] is “lower than the concentration at which oxygen consumption rate was enhanced in vitro”.
As for `FC(F)(F)c1nc2c(Cl)c(Cl)c(Cl)c(Cl)c2[nH]1` [TTFB, 4,5,6,7-Tetrachloro-2-trifluoromethylbenzimidazole], the “Effect of oligomycin” value in the series on CHO–K1 cells [1] was “largely unaffected by the presence of oligomycin”. Besides, the MaxOCR in the series with CHO–K1 cells [2] is 280 % of basal. The “Concentration inducing decline in OCR to sub-basal levels” value with CHO–K1 cells [2] (first 24 min) was 200 µM. Further, the concentration for a half-maximal effect (EC50) with CHO–K1 cells [2] (setting [11]) amounted to 520 nM.
`CC(C)(C)c1cc(C=C(C#N)C#N)cc(C(C)(C)C)c1O` [TyrA9, Tyrphostin A9]: the 50% effective concentration (EC50) with isolated rat hepatocytes was 78000 nM; in the series on CHO–K1 cells [2] (setting [11]), 10 nM. Further, in the series on CHO–K1 cells [1], the “Effect of oligomycin” value is on record as “largely unaffected by the presence of oligomycin”. Further, the “MaxOCR lower than that seen with BAM15” value in the series on CHO–K1 cells [2] was around 140%. Also, in the series on CHO–K1 cells [2], the “Concentration range with sustained enhanced OCR (OCR ≥ 150% basal)” value is at most 100 µM.
With liraglutide, the “Loss of lean mass” value in [10] was “up to 60 % of total weight lost”.
For semaglutide, the “Loss of lean mass” value in series [10] is reported as “up to 40 % of total weight lost”.
